Results: US8835418B2, “Hexafluoroisopropyl carbamate derivatives, their preparation and their therapeutic application” (SANOFI, priority 2010, dated 2014)
Counter-ions that a name gives are not always drawn.

Tests used:
[1] = target: T1, enzyme MGL (monoacyl glycerol lipase) (Mus musculus, UniProt O35678); assay: radioenzymatic assay of MGL activity (hydrolysis of [3H]2-oleoylglycerol by mouse brain homogenate); type: biochemical; settings: mouse brain homogenate (37.5 μg protein), 20 min preincubation, 50 μM 2-OG with [3H]2-OG, ambient temperature, read-out: IC50 (concentration which inhibits the control enzymatic activity of the MGL by 50%)
T1 construct: The source of enzyme MGL is a homogenate of mouse brain from which the cerebellum and the medulla oblongata have been removed; from tissue; host or cells: mouse brain homogenate (cerebellum and medulla oblongata removed)
T1 sequence (O35678 1-303): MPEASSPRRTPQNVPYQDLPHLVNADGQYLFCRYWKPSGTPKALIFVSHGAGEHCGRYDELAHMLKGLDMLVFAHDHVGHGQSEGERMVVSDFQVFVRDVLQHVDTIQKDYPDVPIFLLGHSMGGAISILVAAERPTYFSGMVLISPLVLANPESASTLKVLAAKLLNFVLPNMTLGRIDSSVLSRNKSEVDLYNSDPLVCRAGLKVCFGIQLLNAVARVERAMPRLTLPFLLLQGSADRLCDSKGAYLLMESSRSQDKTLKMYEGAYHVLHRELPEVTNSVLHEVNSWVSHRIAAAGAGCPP
Protocol: The inhibitory activity with respect to MGL is given by the concentration which inhibits 50% of the activity of MGL.
The inhibitory activity was measured in a radioenzymatic assay based on measuring the product of hydrolysis of 2-oleoylglycerol ([^3H]2-OG) by the enzyme MGL. The products of hydrolysis of [^3H]2-OG, labelled on the glycerol, are oleic acid and [^3H]glycerol. The source of enzyme MGL is a homogenate of mouse brain from which the cerebellum and the medulla oblongata have been removed. The mouse brains are removed and stored at −80° C. until they are used or homogenized immediately for 2 times 5 seconds using a Precellys device (Bertin) at 5000 rpm in a 10 mM Tris-HCl pH 8, 150 mM NaCl, 1 mM EDTA buffer at 4° C.
The dilution series of the compounds is prepared from stock solutions at 20 mM in 100% DMSO. The first dilution of this series is prepared in 100% DMSO and then the second is prepared in the enzymatic reaction buffer (50 mM phosphate, 0.1% BSA), resulting in the preparation of a 10-times concentrated concentration range. The test compounds are preincubated at the chosen concentration for 20 minutes with the mouse brain homogenate preparation.
Assaying of the MGL activity is carried out at ambient temperature in a 96-well microplate in a final reaction volume of 50 μl. […] After 20 minutes of preincubation with the test compounds, the proteins are incubated for 20 minutes in the presence of 50 μM of 2-OG comprising an amount of [^3H]2-OG of 0.027 μCi per well (specific activity of 20 Ci/mmol). The reaction is stopped by the addition of 50 μl per well of a charcoal suspension (6% of Sigma activated charcoal, reference C4386, in suspension in a 0.5M HCl, 1.5M NaCl solution). After stirring for 10 minutes, the [^3H]glycerol, not retained by the charcoal, is collected by filtration in a microplate comprising 100 μl of scintillant (OptiPhase Supermix, Perkin-Elmer) per well.

| IC50 [1] [nM] | melting point | SMILES |
| --- | --- | --- |
| 6 |  | O=C(OC(C(F)(F)F)C(F)(F)F)N1CCC(n2nnc3cc(C(F)(F)F)ccc32)CC1 [Compound 13, 2,2,2-Trifluoro-1-(trifluoromethyl)ethyl 4-(5-(trifluoromethyl)benzotriazol-1-yl)piperidine-1-carboxylate] |
|  | 98 to 118 °C | NC(=O)c1cnn(CC2CCN(C(=O)OC(C(F)(F)F)C(F)(F)F)CC2)c1 [Compound 231, 2,2,2-Trifluoro-1-(trifluoromethyl)ethyl 4-(4-carbamoylpyrazol-1-ylmethyl)piperidine-1-carboxylate] |
|  | 225 to 235 °C (dec.) | O=C(OC(C(F)(F)F)C(F)(F)F)N1CCC(Nc2ccc(C(F)(F)F)cn2)CC1 (as salt: hydrochloride) [Compound 65, 2,2,2-Trifluoro-1-(trifluoromethyl)ethyl 4-(5-(trifluoromethyl)pyridin-2-ylamino)piperidine-1-carboxylate hydrochloride (1:1)] |
|  | 77 to 78 °C | CC(C)(Oc1ccc(Cl)cc1)C(=O)NCC1CCN(C(=O)OC(C(F)(F)F)C(F)(F)F)CC1 [Compound 87, 2,2,2-Trifluoro-1-(trifluoromethyl)ethyl 4-{[2-(4-chlorophenoxy)-2-methylpropionylamino]-methyl}piperidine-1-carboxylate] |
|  | 108 to 109 °C | O=C(OC(C(F)(F)F)C(F)(F)F)N1CC(C2(NS(=O)(=O)c3ccc(Cl)cc3)CC2)C1 [Compound 220, 2,2,2-Trifluoro-1-(trifluoromethyl)ethyl 3-[1-(4-chlorobenzenesulphonylamino)cyclopropyl]-azetidine-1-carboxylate] |
|  | 72 to 73 °C | O=C(OC(C(F)(F)F)C(F)(F)F)N1CC[C@H](Oc2cccc(-c3ccc(F)cc3)c2)C1 [Compound 22, 2,2,2-Trifluoro-1-(trifluoromethyl)ethyl (S)-3-(4′-fluorobiphenyl-3-yloxy)pyrrolidine-1-carboxylate] |
|  | 72 to 73 °C | O=C(OC(C(F)(F)F)C(F)(F)F)N1CC[C@@H](Oc2cccc(-c3ccc(F)cc3)c2)C1 [Compound 23, 2,2,2-Trifluoro-1-(trifluoromethyl)ethyl (R)-3-(4′-fluorobiphenyl-3-yloxy)pyrrolidine-1-carboxylate] |
|  | 204 to 206 °C | O=C(Nc1cccc(Cl)c1)NC1CCN(C(=O)OC(C(F)(F)F)C(F)(F)F)CC1 [Compound 166, 2,2,2-Trifluoro-1-(trifluoromethyl)ethyl 4-[3-(3-chlorophenyl)ureido]piperidine-1-carboxylate] |
| 1.1 | 116 to 117 °C | O=C(NCCC1CN(C(=O)OC(C(F)(F)F)C(F)(F)F)C1)Nc1cccc(Cl)c1 [Compound 188, 2,2,2-Trifluoro-1-(trifluoromethyl)ethyl 3-{2-[3-(3-chlorophenyl)ureido]ethyl}azetidine-1-carboxylate] |
|  | 101 to 102 °C | CN(C(=O)NCCC1CN(C(=O)OC(C(F)(F)F)C(F)(F)F)C1)c1ccccc1 [Compound 191, 2,2,2-Trifluoro-1-(trifluoromethyl)ethyl 3-[2-(3-methyl-3-phenylureido)ethyl]azetidine-1-carboxylate] |
|  | 54 to 56 °C | N#Cc1ccc(C2CCN(C(=O)OC(C(F)(F)F)C(F)(F)F)CC2)cc1 [Compound 5, 2,2,2-Trifluoro-1-(trifluoromethyl)ethyl 4-(4-cyanophenyl)piperidine-1-carboxylate] |
| 5 | 151 to 153 °C | N#Cc1cccc(-c2nccc(NC3CCN(C(=O)OC(C(F)(F)F)C(F)(F)F)CC3)n2)c1 [Compound 70, 2,2,2-Trifluoro-1-(trifluoromethyl)ethyl 4-[2-(3-cyanophenyl)pyrimidin-4-ylamino]pipendine-1-carboxylate] |
|  | 91 to 93 °C | O=C(OC(C(F)(F)F)C(F)(F)F)N1CCC(c2noc3cc(F)ccc23)CC1 [Compound 10, 2,2,2-Trifluoro-1-(trifluoromethyl)ethyl 4-(6-fluorobenz[d]isoxazol-3-yl)piperidine-1-carboxylate] |
|  | 231 to 233 °C | O=C(OC(C(F)(F)F)C(F)(F)F)N1CCC(n2c(=O)[nH]c3cc(Cl)ccc32)CC1 [Compound 12, 2,2,2-Trifluoro-1-(trifluoromethyl)ethyl 4-(5-chloro-2-oxo-2,3-dihydrobenzimidazol-1-yl)piperidine-1-carboxylate] |
|  | 135 to 136 °C | O=C(OC(C(F)(F)F)C(F)(F)F)N1CCC(CNS(=O)(=O)c2cccc3ccccc23)C1 (stereo not drawn) [Compound 113, 2,2,2-Trifluoro-1-(trifluoromethyl)ethyl 3-[(naphthalene-1-sulphonylamino)methyl]-pyrrolidine-1-carboxylate] |
| 0.6 | 80 to 82 °C | N#Cc1cccc(-c2cccc(OC3CCN(C(=O)OC(C(F)(F)F)C(F)(F)F)CC3)c2)c1 [Compound 33, 2,2,2-Trifluoro-1-(trifluoromethyl)ethyl 4-(3′-cyanobiphenyl-3-yloxy)piperidine-1-carboxylate] |
| 7 | 146 to 148 °C | O=C(OC(C(F)(F)F)C(F)(F)F)N1CCC(CNS(=O)(=O)c2cccc3nsnc23)CC1 [Compound 211, 2,2,2-Trifluoro-1-(trifluoromethyl)ethyl 4-[(benzo[1,2,5]thiadiazole-4-sulphonylamino)methyl]piperidine-1-carboxylate] |
